From ChEMBL document CHEMBL4732223, “Prenylated flavonoids from Ficus hirta induces HeLa cells apoptosis via MAPK and AKT signaling pathways” (Bioorg Med Chem Lett, 2021)
pIC50: −log10 of the molar value. Activity calls are given as the source filed them. The calls are words filed in the database; no cut-off is given here.

Legend:
HeLa [1] = assay: Induction of apoptosis in human HeLa cells assessed as increase in PARP cleavage measured after 24 hrs by Western blot analysis; type: functional, cell-based; conditions: dose 10-30 µM
[2] = Induction of apoptotis in human HeLa cells assessed as necrotic cells at 40 uM measured after 24 hrs by FITC/propidium iodide staining based flow cytometry (reference value: 2.59 %); type: functional
[3] = target: Serine/threonine-protein kinase AKT (Homo sapiens) (UniProt P31751+Q9Y243+P31749); assay: […] of AKT signaling pathway in human HeLa cells assessed as reduction in phosphorylated AKT expression measured after 24 hrs by Western blot analysis; type: cell-based; conditions: dose 10-30 µM
[4] = Induction of apoptotis in human HeLa cells assessed as late apoptotic cells at 40 uM measured after 24 hrs by FITC/propidium iodide staining based flow cytometry (reference value: 2.74 %); type: functional
NCI-H460 = assay: Cytotoxicity against human NCI-H460 cells assessed as inhibition of cell proliferation by MTT assay; type: functional, cell-based
[5] = Induction of apoptotis in human HeLa cells assessed as early apoptotic cells at 30 uM measured after 24 hrs by FITC/propidium iodide staining based flow cytometry (reference value: 5.46 %); type: functional
[6] = Induction of apoptotis in human HeLa cells assessed as necrotic cells at 20 uM measured after 24 hrs by FITC/propidium iodide staining based flow cytometry (reference value: 2.59 %); type: functional
[7] = Induction of apoptotis in human HeLa cells assessed as live cells at 40 uM measured after 24 hrs by FITC/propidium iodide staining based flow cytometry (reference value: 89.2 %); type: functional
[8] = Induction of apoptotis in human HeLa cells assessed as live cells at 20 uM measured after 24 hrs by FITC/propidium iodide staining based flow cytometry (reference value: 89.2 %); type: functional
[9] = Induction of apoptotis in human HeLa cells assessed as necrotic cells at 30 uM measured after 24 hrs by FITC/propidium iodide staining based flow cytometry (reference value: 2.59 %); type: functional
[10] = Induction of apoptotis in human HeLa cells assessed as necrotic cells at 10 uM measured after 24 hrs by FITC/propidium iodide staining based flow cytometry (reference value: 2.59 %); type: functional
[11] = Induction of apoptotis in human HeLa cells assessed as live cells at 10 uM measured after 24 hrs by FITC/propidium iodide staining based flow cytometry (reference value: 89.2 %); type: functional
[12] = Induction of apoptotis in human HeLa cells assessed as late apoptotic cells at 30 uM measured after 24 hrs by FITC/propidium iodide staining based flow cytometry (reference value: 2.74 %); type: functional
[13] = Induction of apoptotis in human HeLa cells assessed as live cells at 30 uM measured after 24 hrs by FITC/propidium iodide staining based flow cytometry (reference value: 89.2 %); type: functional
[14] = Induction of apoptotis in human HeLa cells assessed as late apoptotic cells at 10 uM measured after 24 hrs by FITC/propidium iodide staining based flow cytometry (reference value: 2.74 %); type: functional
[15] = Induction of apoptotis in human HeLa cells assessed as early apoptotic cells at 20 uM measured after 24 hrs by FITC/propidium iodide staining based flow cytometry (reference value: 5.46 %); type: functional
[16] = Induction of apoptotis in human HeLa cells assessed as early apoptotic cells at 10 uM measured after 24 hrs by FITC/propidium iodide staining based flow cytometry (reference value: 5.46 %); type: functional
HeLa [17] = assay: Cytotoxicity against human HeLa cells assessed as inhibition of cell proliferation by MTT assay; type: functional, cell-based
HepG2 = assay: Cytotoxicity against human HepG2 cells assessed as inhibition of cell proliferation by MTT assay; type: functional, cell-based
[18] = Induction of apoptotis in human HeLa cells assessed as late apoptotic cells at 20 uM measured after 24 hrs by FITC/propidium iodide staining based flow cytometry (reference value: 2.74 %); type: functional
HeLa [19] = assay: Activation of MAPK signaling pathway in human HeLa cells assessed as increase in phosphorylated p38 protein level at 30 uM measured after 24 hrs by Western blot analysis; type: cell-based; conditions: filed as activator
MCF7 = assay: Cytotoxicity against human MCF7 cells assessed as inhibition of cell proliferation by MTT assay; type: functional, cell-based
[20] = Induction of apoptotis in human HeLa cells assessed as early apoptotic cells at 40 uM measured after 24 hrs by FITC/propidium iodide staining based flow cytometry (reference value: 5.46 %); type: functional
HeLa [21] = assay: Activation of MAPK signaling pathway in human HeLa cells assessed as reduction in phosphorylated ERK expression measured after 24 hrs by Western blot analysis; type: cell-based; conditions: filed as activator, dose 10-30 µM
HeLa [22] = assay: Activation of MAPK signaling pathway in human HeLa cells assessed as increase in phosphorylated JNK protein level at 30 uM measured after 24 hrs by Western blot analysis; type: cell-based; conditions: filed as activator

Chain of Serine/threonine-protein kinase AKT (Homo sapiens) (P31749 whole entry, looked up): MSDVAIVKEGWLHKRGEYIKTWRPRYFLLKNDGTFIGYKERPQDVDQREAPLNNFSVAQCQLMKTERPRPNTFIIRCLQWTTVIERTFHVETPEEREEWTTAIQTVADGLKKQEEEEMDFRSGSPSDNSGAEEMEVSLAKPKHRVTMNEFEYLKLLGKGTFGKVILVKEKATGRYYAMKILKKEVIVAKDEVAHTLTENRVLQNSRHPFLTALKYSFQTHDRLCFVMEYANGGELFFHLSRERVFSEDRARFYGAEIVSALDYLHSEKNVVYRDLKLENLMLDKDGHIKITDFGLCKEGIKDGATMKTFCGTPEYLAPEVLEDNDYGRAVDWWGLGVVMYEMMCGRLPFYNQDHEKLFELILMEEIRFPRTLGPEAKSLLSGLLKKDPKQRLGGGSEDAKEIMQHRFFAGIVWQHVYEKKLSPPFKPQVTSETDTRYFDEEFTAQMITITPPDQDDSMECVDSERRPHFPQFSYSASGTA
Chain of Serine/threonine-protein kinase AKT (Homo sapiens) (P31751 whole entry, looked up): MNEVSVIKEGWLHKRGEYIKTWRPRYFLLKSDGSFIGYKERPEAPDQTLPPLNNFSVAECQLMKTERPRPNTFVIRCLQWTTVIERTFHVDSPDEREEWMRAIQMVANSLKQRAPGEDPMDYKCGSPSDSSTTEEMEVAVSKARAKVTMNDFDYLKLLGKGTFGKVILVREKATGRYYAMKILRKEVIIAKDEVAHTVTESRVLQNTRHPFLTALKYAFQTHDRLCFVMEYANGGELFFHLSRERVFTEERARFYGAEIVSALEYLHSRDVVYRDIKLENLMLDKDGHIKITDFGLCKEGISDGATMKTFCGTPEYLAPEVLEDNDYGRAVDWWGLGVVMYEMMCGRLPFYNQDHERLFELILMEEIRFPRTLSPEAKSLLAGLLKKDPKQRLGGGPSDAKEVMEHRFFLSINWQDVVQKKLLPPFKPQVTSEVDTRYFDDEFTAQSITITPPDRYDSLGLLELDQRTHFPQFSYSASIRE
Chain of Serine/threonine-protein kinase AKT (Homo sapiens) (Q9Y243 whole entry, looked up): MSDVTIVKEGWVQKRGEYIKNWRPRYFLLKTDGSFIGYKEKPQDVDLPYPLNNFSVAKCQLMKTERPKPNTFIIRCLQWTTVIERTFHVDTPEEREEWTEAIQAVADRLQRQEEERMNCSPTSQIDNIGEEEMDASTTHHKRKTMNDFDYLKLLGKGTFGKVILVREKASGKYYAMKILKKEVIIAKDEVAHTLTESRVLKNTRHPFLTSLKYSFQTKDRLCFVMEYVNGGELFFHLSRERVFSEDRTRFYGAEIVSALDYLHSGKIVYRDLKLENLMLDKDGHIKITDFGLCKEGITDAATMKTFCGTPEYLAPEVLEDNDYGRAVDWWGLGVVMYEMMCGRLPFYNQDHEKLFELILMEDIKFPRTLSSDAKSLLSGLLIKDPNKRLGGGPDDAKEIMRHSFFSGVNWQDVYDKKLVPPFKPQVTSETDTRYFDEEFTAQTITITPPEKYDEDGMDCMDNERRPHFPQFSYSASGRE

## CC(C)=CCc1c(O)cc2oc(-c3ccc(O)cc3)cc(=O)c2c1O
HeLa [1]
  Activity: Dose-dependent effect
[2]
  Activity: 0.63%
[3]
  Activity: Dose-dependent effect
[4]
  Activity: 4.28%
NCI-H460
  pIC50: 4.41
[5]
  Activity: 9.41%
[6]
  Activity: 0.88%
[7]
  Activity: 82.6%
[8]
  Activity: 87.6%
[9]
  Activity: 0.69%
[10]
  Activity: 0.75%
[11]
  Activity: 88.2%
[12]
  Activity: 3.4%
[13]
  Activity: 86.5%
[14]
  Activity: 4.11%
[15]
  Activity: 8.25%
[16]
  Activity: 6.92%
HeLa [17]
  pIC50: 4.54
HepG2
  pIC50: < 4.40
[18]
  Activity: 3.23%
HeLa [19]
  Activity: Active
MCF7
  pIC50: 4.49
[20]
  Activity: 12.5%
HeLa [21]
  Activity: Dose-dependent effect
HeLa [22]
  Activity: Active

## CC(C)=CCc1c(O)cc2oc(-c3ccc(O)c(O)c3)cc(=O)c2c1O
NCI-H460
  pIC50: < 4.40
HeLa [17]
  pIC50: < 4.40
HepG2
  pIC50: < 4.40
MCF7
  pIC50: < 4.40

## CC(C)=CCc1c(O)cc(O)c2c(=O)cc(-c3ccc(O)cc3)oc12
NCI-H460
  pIC50: < 4.40
HeLa [17]
  pIC50: < 4.40
HepG2
  pIC50: < 4.40
MCF7
  pIC50: < 4.40

## COc1c(CC=C(C)C)cc(C2CC(=O)c3c(O)cc(O)cc3O2)c(CC=C(C)C)c1OC (racemic)
NCI-H460
  pIC50: < 4.40
HeLa [17]
  pIC50: < 4.40
HepG2
  pIC50: < 4.40
MCF7
  pIC50: < 4.40

## CC(C)=CCc1cc(-c2cc(=O)c3c(O)cc(O)cc3o2)cc(O)c1O
NCI-H460
  pIC50: < 4.40
HeLa [17]
  pIC50: < 4.40
HepG2
  pIC50: < 4.40
MCF7
  pIC50: < 4.40

## CC(C)=CCc1cc(-c2cc(=O)c3c(O)cc(O)cc3o2)ccc1O
NCI-H460
  pIC50: < 4.40
HeLa [17]
  pIC50: < 4.40
HepG2
  pIC50: < 4.40
MCF7
  pIC50: < 4.40
